From patent publication US9603859B2, “Methods and products for increasing the rate of healing of tissue wounds” (BRIGHAM YOUNG UNIVERSITY, priority 2011, dated 2017)

How the values were obtained:
[1] = test system: Mixed-species biofilms of S. aureus and P. aeruginosa; experiment: Mixed-species biofilm susceptibility, live/dead staining; format: cell-based; settings: biofilms grown in collagen-coated plates for 24 hours
HaCaT migration = HaCaT migration by ECIS (2D wound healing); format: cell-based, human
Procedure: Standard microdilution methods were used to determine minimum inhibitory concentration (MIC) and minimum bactericidal concentration (MBC) of test agents (peptides and peptide-mimics) against drug resistant Staphylococcus. aureus (TCH1516) and Pseudomonas. aeruginosa (PAO1). […] Cytotoxicity of test agents to human immortalized keratinocytes (HaCaTs) was assessed using 3-[4,5-dimethylthiazol-2-yl]-2,5-diphenyl tetrazolium bromide (MTT). Promotion of HaCaT migration by test agents was tested using electric cell-substrate impedance sensing (ECIS®), which induced 2D wound healing. The ability of test agents to stimulate angiogenesis was evaluated using matrigel-induced tube formation of human vein endothelial cells (HUVECs).

[2] = test system: chronic non-healing oral cutaneous fistula; experiment: Treatment of chronic non-healing oral cutaneous fistula in a horse; format: in vivo
Source text: A horse with a chronic non-healing oral cutaneous fistula was first treated with two prior art treatments with no success. The first treatment was with an aqueous spray of Vetericyn (0.007% hypochlorite) for a period of 7 days. […]

[3] = test system: torn right front shoulder wound; experiment: Treatment of torn right front shoulder wound in a horse; format: in vivo; settings: 0.04% solution in water sprayed twice a day
Procedure: This wound occurs commonly in horses and usually takes 3 to 6 months to heal. Typically this wound will result in a significant loss of muscle in the region. This wound was treated twice a day with a 0.04% solution of CSA-44 in water. The tissue treatment composition was applied by spraying sufficient composition to wet the entire surface of the wound.

[4] = test system: laceration to left hind cannon region; experiment: Treatment of laceration to left hind cannon region of a broodmare; format: in vivo; settings: horse; 0.04% solution in water twice daily; no wrap
Procedure: A reining broodmare in Texas was involved in an accident resulting in a laceration to her left hind cannon region. The wound was 3 inches in length and 2 inches wide. The laceration extended all the way to the cannon bone, exposing the periosteum. This wound was also treated with a 0.04% solution of CSA-44 in water twice daily. No wrap was applied (i.e., no immobilization). The wound closed in 11 days with normal hair growth at 30 days. This type of wound would usually require aggressive wraps for 3 months with the possibility of other procedures being necessary for the excessive granulation tissue that commonly develops.

[5] = test system: scratches (fungal infection of the lower extremities with secondary bacterial infection); experiment: Treatment of extreme case of scratches in a horse; format: in vivo
Source text: A horse with an extreme case of scratches was successfully healed using CSA. Scratches is a fungal infection of the lower extremities in horses. This infection usually results in not only a fungal but also a secondary bacterial infection. In this case, the horse developed severe and debilitating granulation tissue of the ankle resulting in poor mobility due to cracking and bleeding. […] The chronic infection persisted for over two years despite the multiple attempts to treat with an antimicrobial. Due to the debilitating wound the horse was slated for slaughter. […] Normal hair growth and tissue was present in 4 weeks.

[6] = test system: fungal infection of the skin (summer itch); experiment: Treatment of fungal infection of the skin (summer itch) in a show mare; format: in vivo; settings: horse; 0.04% solution in water twice daily
Source text: A show mare developed an uncontrollable fungal infection of the skin. This malady is commonly referred to as summer itch. A 0.04% solution of CSA-44 in water was used twice daily for 3 weeks resulting in complete regrowth of normal skin and hair. Normal treatment time periods for this problem usually range from 3 to 4 months.

primary human MSC cells = experiment: Wound healing array q-PCR gene expression in mesenchymal stem cells; format: cell-based; settings: 8 hours treatment
Source text: To determine the role of synthetic Ceragenins CSA-13, 44 and 90 in wound healing using mesenchymal stem cells (MSC), targeted mRNA panels from SABiosciences, and primary cells from Lonza were selected. Cells were purchased from Lonza.com and used fresh for each test using recommended media and culture conditions. After treatment, mRNA was isolated using Qiagen RNeasy Mini Kit®, and quantified using a NanoDrop 2000® by UV at 260 nm and 260/280 ratio for purity. cDNA was made using a First Strand Kit® from SABiosciences and processed for real time PCR using a kit from the same company for selected analysis of wound healing pathways. Results from q-PCR were uploaded to the SABiosciences site and to Ingenuity.com web site for analysis and pathway mapping. SABiosciences wound healing array plates (Cat# PAHS-121) and innate/acquired immune response plates (PAHS-052) were used. These arrays are fully validated when used as recommended. On day 1, primary human MSC cells were plated at 200,000 cells/well using 6-well plates with 3 ml of recommended media—hMSC Basal Medium+BulletKit (50 ml Growth Supplement, 10 ml L-Glutamine and 0.5 ml Gentamicin Sulfate Amphotercin-B) for 24 hours. Only early passages of cells were used, and never from frozen stock. On day 2, cells were treated with compounds dissolved in DMSO diluted 1:1000 or more to avoid effects of the solvent. Final testing concentration for CSA-13 was 5.0 μM. Treatment lasted 8 hours, and was followed by RNA isolation using QIAGEN RNeasy Mini Kit® (74104). RNA was measured at 260/280 nm using a NanoDrop 2000® and normalized to 2.4 ng per well, cDNA preparation was done using QIAGEN First Strand kit 330401. q-PCR was run as absolute quantification and threshold set at 0.1 units. Dendritic cells were plated at 500,000 cells/well using 24-well plate with 500 ul of Lonza LGM-3 Complete Growth Medium with and without compound. Treatment lasted 8 hours, and was followed by RNA isolation using QIAGEN RNeasy Mini Kit® (74104). RNA was measured at 260/280 nm using NanoDrop2000® and normalized to 2.4 ng per well, cDNA preparation was done using QIAGEN First Strand kit 330401. PCR was run as absolute quantification and threshold set at 0.1 units. For the wound healing array, strong upregulation of growth factors such as HB-EGF and cell migration factors such as MMP1 and CXCL2 were found, indicating a clear potential for CSA as a modulator of wound healing. Additional gene expression data is provided in Tables 1-3 for CSA-13, 44, and 90, respectively.

## Dermaseptin S1
[1]
  anti-biofilm activity: increased in anti-biofilm activity when shortened to the first 15 amino acids

## LL-37: a human peptide and positive control (LLGDFFRKSKEKIGKEFKRIVQRIKDFLRNLVPRTES; Antibacterial peptide LL-37; UniProt P49913 134-170, looked up)
[1]
  anti-biofilm activity: showed anti-biofilm activity
HaCaT migration
  induction of wound healing: induced wound healing

## CCCCCCCCOC(=O)CC[C@@H](C)[C@H]1CC[C@H]2[C@@H]3[C@H](OC(=O)CCN)C[C@@H]4C[C@H](OC(=O)CCN)CC[C@]4(C)[C@H]3C[C@H](OC(=O)CCN)[C@]12C [CSA-44]
[2]; 0.04% CSA-44 in water sprayed once daily
  time to closure of the fistula and healthy tissue: 7 days
[2]; Vetericyn (0.007% hypochlorite) aqueous spray 7 days, Furacin Salve daily 5 days, 0.04% CSA-44 in water sprayed once daily 7 days
  outcome of wound treatment: successfully treated
[3]
  muscle loss after healing: without any apparent muscle loss
[3]; wound 4 x 6 inches, 3 inches deep
  time until wound closed and completely healed: 28 days
[4]
  time of normal hair growth: 30 days
  time until wound closed: 11 days
[5]; 0.04% in water sprayed twice daily
  time until normal hair growth and tissue present: 4 weeks
[5]; CSA-44 0.04% in water sprayed twice daily for four weeks, comparators before CSA
  outcome of wound treatment: successfully treated
[6]
  treatment time to complete regrowth of normal skin and hair: 3 weeks
Primary human MSC cells
  Fold Regulation ACTA2: −1.9377
  Fold Regulation ACTB: −1.7981
  Fold Regulation CCL2: −3.1925
  Fold Regulation CDH1: −2.7158
  Fold Regulation COL1A2: 1.5483
  Fold Regulation COL3A1: 1.7385
  Fold Regulation COL4A3: −2.4845
  Fold Regulation CTGF: −24.5295
  Fold Regulation CTSK: 1.6388
  Fold Regulation CTSL2: 1.7924
  Fold Regulation EGFR: 1.5364
  Fold Regulation FGF7: 4.84
  Fold Regulation HGF: 3.1098
  Fold Regulation IGF1: 1.6877
  Fold Regulation ITGB6: 1.6323
  Fold Regulation MMP9: 1.5543
  Fold Regulation SERPINE1: −2.9618
  Fold Regulation TGFBR3: −2.0462
  Fold Regulation TIMP1: 1.6126
  Fold Regulation WISP1: −1.9722
Primary human MSC cells; CSA-13 at 5.0 μM
  Fold Regulation ANGPT1: −2.0857
  Fold Regulation CCL7: 2.1961
  Fold Regulation CSF2: −1.8551
  Fold Regulation CXCL2: 14.3964
  Fold Regulation F13A1: 2.0963
  Fold Regulation FGF2: −1.6016
  Fold Regulation FGF10: 2.2811
  Fold Regulation HBEGF: 3.5463
  Fold Regulation IL2: 2.1928
  Fold Regulation IL6: 4.0387
  Fold Regulation IL10: −2.0128
  Fold Regulation ITGA2: 16.0648
  Fold Regulation ITGB3: −1.5802
  Fold Regulation MMP1: 68.9688
  Fold Regulation PLAT: −1.754
  Fold Regulation PLAU: 1.6131
  Fold Regulation PLAUR: 2.5454
  Fold Regulation PTGS2: 48.6907
  Fold Regulation VEGFA: 4.6052

## CCCCCN(CCCCC)CCC[C@@H](C)[C@H]1CC[C@H]2[C@@H]3[C@H](OCCCN)C[C@@H]4C[C@H](OCCCN)CC[C@]4(C)[C@H]3C[C@H](OCCCN)[C@]12C [CSA-90]
Primary human MSC cells
  Fold Regulation ACTA2: −2.5014
  Fold Regulation ACTB: −2.0745
  Fold Regulation CCL2: −1.5793
  Fold Regulation COL4A3: −1.6195
  Fold Regulation CTGF: −15.7171
  Fold Regulation CTSK: 1.5366
  Fold Regulation CTSL2: 1.6306
  Fold Regulation EGFR: 1.6212
  Fold Regulation FGF7: 5.1689
  Fold Regulation HGF: 2.3334
  Fold Regulation IFNG: 1.839
  Fold Regulation IGF1: 2.2724
  Fold Regulation ITGA3: −1.5127
  Fold Regulation ITGB6: 1.9381
  Fold Regulation MMP9: 2.5652
  Fold Regulation SERPINE1: −3.7307
  Fold Regulation TGFBR3: −1.5938
  Fold Regulation TIMP1: 1.8212
  Fold Regulation WISP1: −2.3543
Primary human MSC cells; CSA-13 at 5.0 μM
  Fold Regulation ANGPT1: −1.915
  Fold Regulation CCL7: 2.2874
  Fold Regulation CXCL1: 3.1083
  Fold Regulation CXCL2: 36.5878
  Fold Regulation F13A1: 2.1032
  Fold Regulation FGF10: 1.9842
  Fold Regulation HBEGF: 3.5988
  Fold Regulation IL2: 1.8522
  Fold Regulation IL6: 7.2299
  Fold Regulation IL10: −1.7382
  Fold Regulation ITGA2: 14.3637
  Fold Regulation ITGB3: −1.538
  Fold Regulation MMP1: 45.3753
  Fold Regulation PLAT: −2.14
  Fold Regulation PLAUR: 1.9924
  Fold Regulation PTGS2: 66.6189
  Fold Regulation VEGFA: 3.3257

## CCCCCCCCNCCC[C@@H](C)[C@H]1CC[C@H]2[C@@H]3[C@H](OCCCN)C[C@@H]4C[C@H](OCCCN)CC[C@]4(C)[C@H]3C[C@H](OCCCN)[C@]12C [CSA-13]
Primary human MSC cells; CSA-13 at 5.0 μM
  Fold Regulation ANGPT1: −2.0046
  Fold Regulation CCL7: 1.6632
  Fold Regulation CSF2: −2.4867
  Fold Regulation CXCL1: 1.6181
  Fold Regulation CXCL2: 4.873
  Fold Regulation CXCL5: 2.0582
  Fold Regulation F3: −3.3945
  Fold Regulation F13A1: 2.0916
  Fold Regulation FGF2: −1.633
  Fold Regulation FGF10: 3.8659
  Fold Regulation HBEGF: 3.255
  Fold Regulation IL2: 1.865
  Fold Regulation IL4: −1.9944
  Fold Regulation IL6: 3.1692
  Fold Regulation IL10: −1.6166
  Fold Regulation ITGA2: 3.5659
  Fold Regulation ITGB3: −1.5243
  Fold Regulation MMP1: 4.4172
  Fold Regulation PLAT: −2.1487
  Fold Regulation PLAU: 1.7849
  Fold Regulation PLAUR: 1.6286
  Fold Regulation PTGS2: 3.3333
  Fold Regulation VEGFA: 1.7274
  Fold Regulation VTN: 2.0612
